Measured values taken from BigSolDB 2.1.

With `COc1ccc2nc(SCc3ncc(C)c(OC)c3C)[nH]c2c1` the solubility (mole fraction) (in acetone, 280.35 K) was 0.005, the solubility (mole fraction) (in acetone, 284.35 K) was 0.0065 and the solubility (mole fraction) (in acetone, 288.15 K) was 0.0083. The solubility (mole fraction) (in acetone, 292.25 K) was 0.0108, the solubility (mole fraction) (in acetone, 296.65 K) was 0.014 and the solubility (mole fraction) (in acetone, 300.25 K) was 0.0172. The solubility (mole fraction) (in acetone, 303.15 K) was 0.0203, the solubility (mole fraction) (in acetone, 307.65 K) was 0.0263 and the solubility (mole fraction) (in acetone, 311.15 K) was 0.0319. For the same compound, the solubility (mole fraction) (in acetone, 315.15 K) was 0.039, the solubility (mole fraction) (in acetone, 319.65 K) was 0.0496 and the solubility (mole fraction) (in ethanol, 280.35 K) was 0.0144. The solubility (mole fraction) (in ethanol, 284.35 K) was 0.0189, the solubility (mole fraction) (in ethanol, 288.15 K) was 0.0248 and the solubility (mole fraction) (in ethanol, 292.25 K) was 0.0323. The solubility (mole fraction) (in ethanol, 296.65 K) was 0.0412, the solubility (mole fraction) (in ethanol, 300.25 K) was 0.0511 and the solubility (mole fraction) (in ethanol, 303.15 K) was 0.0606. The solubility (mole fraction) (in ethanol, 307.65 K) was 0.0775, the solubility (mole fraction) (in ethanol, 311.15 K) was 0.0946 and the solubility (mole fraction) (in ethanol, 315.15 K) was 0.115. The solubility (mole fraction) (in ethanol, 319.65 K) was 0.141, the solubility (mole fraction) (in ethyl acetate, 280.35 K) was 0.0033 and the solubility (mole fraction) (in ethyl acetate, 284.35 K) was 0.004. It also gave a solubility (mole fraction) (in ethyl acetate, 288.15 K) of 0.0049, a solubility (mole fraction) (in ethyl acetate, 292.25 K) of 0.0058 and a solubility (mole fraction) (in ethyl acetate, 296.65 K) of 0.0073. It also gave a solubility (mole fraction) (in ethyl acetate, 300.25 K) of 0.0085, a solubility (mole fraction) (in ethyl acetate, 303.15 K) of 0.0098 and a solubility (mole fraction) (in ethyl acetate, 307.65 K) of 0.0122. It also gave a solubility (mole fraction) (in ethyl acetate, 311.15 K) of 0.0142, a solubility (mole fraction) (in ethyl acetate, 315.15 K) of 0.0165 and a solubility (mole fraction) (in ethyl acetate, 319.65 K) of 0.0208. The solubility (mole fraction) (in isopropanol, 280.35 K) was 0.0032, the solubility (mole fraction) (in isopropanol, 284.35 K) was 0.0044 and the solubility (mole fraction) (in isopropanol, 288.15 K) was 0.0058. It also gave a solubility (mole fraction) (in isopropanol, 292.25 K) of 0.0079, a solubility (mole fraction) (in isopropanol, 296.65 K) of 0.0108 and a solubility (mole fraction) (in isopropanol, 300.25 K) of 0.014. For the same compound, the solubility (mole fraction) (in isopropanol, 303.15 K) was 0.0172, the solubility (mole fraction) (in isopropanol, 307.65 K) was 0.0234 and the solubility (mole fraction) (in isopropanol, 311.15 K) was 0.0286. It also gave a solubility (mole fraction) (in isopropanol, 315.15 K) of 0.037, a solubility (mole fraction) (in isopropanol, 319.65 K) of 0.0482 and a solubility (mole fraction) (in methanol, 280.35 K) of 0.0127. The solubility (mole fraction) (in methanol, 284.35 K) was 0.0178, the solubility (mole fraction) (in methanol, 288.15 K) was 0.0239 and the solubility (mole fraction) (in methanol, 292.25 K) was 0.0322. For the same compound, the solubility (mole fraction) (in methanol, 296.65 K) was 0.0442, the solubility (mole fraction) (in methanol, 300.25 K) was 0.0559 and the solubility (mole fraction) (in methanol, 303.15 K) was 0.0668. For the same compound, the solubility (mole fraction) (in methanol, 307.65 K) was 0.0887, the solubility (mole fraction) (in methanol, 311.15 K) was 0.11 and the solubility (mole fraction) (in methanol, 315.15 K) was 0.138. It also gave a solubility (mole fraction) (in methanol, 319.65 K) of 0.172, a solubility (mole fraction) (in n-butanol, 280.35 K) of 0.0103 and a solubility (mole fraction) (in n-butanol, 284.35 K) of 0.0134. It also gave a solubility (mole fraction) (in n-butanol, 288.15 K) of 0.0171, a solubility (mole fraction) (in n-butanol, 292.25 K) of 0.0218 and a solubility (mole fraction) (in n-butanol, 296.65 K) of 0.0292. The solubility (mole fraction) (in n-butanol, 300.25 K) was 0.0356, the solubility (mole fraction) (in n-butanol, 303.15 K) was 0.0425 and the solubility (mole fraction) (in n-butanol, 307.65 K) was 0.0549. It also gave a solubility (mole fraction) (in n-butanol, 311.15 K) of 0.0661, a solubility (mole fraction) (in n-butanol, 315.15 K) of 0.0824 and a solubility (mole fraction) (in n-butanol, 319.65 K) of 0.104. The solubility (mole fraction) (in n-propanol, 280.35 K) was 0.0076, the solubility (mole fraction) (in n-propanol, 284.35 K) was 0.0101 and the solubility (mole fraction) (in n-propanol, 288.15 K) was 0.0134. For the same compound, the solubility (mole fraction) (in n-propanol, 292.25 K) was 0.0178, the solubility (mole fraction) (in n-propanol, 296.65 K) was 0.0234 and the solubility (mole fraction) (in n-propanol, 300.25 K) was 0.0296. The solubility (mole fraction) (in n-propanol, 303.15 K) was 0.0359, the solubility (mole fraction) (in n-propanol, 307.65 K) was 0.047 and the solubility (mole fraction) (in n-propanol, 311.15 K) was 0.0567. It also gave a solubility (mole fraction) (in n-propanol, 315.15 K) of 0.0713 and a solubility (mole fraction) (in n-propanol, 319.65 K) of 0.0914.
